Measured values published in PubChem BioAssay AID256 (DTP/NCI, 2004).
Values joined by “and” are separate entries in the source; they are usually repeats but may differ in a detail not shown here. Identical values can stand only once. Toxic doses and inconclusive results are not listed. How the source made its calls: active means survival T/C of 150% or more; inactive means T/C below 125% in these data.

System: CD2F1 mice, L1210 leukemia ip, survival T/C
Assay: NCI In Vivo Anticancer Drug Screen. Data for tumor model L1210 Leukemia (intraperitoneal) in CD2F1 (CDF1) mice
Settings: higher = longer survival
In short: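 Ratio T/C, where T is the treated-group value and C the vehicle-dosed control value, from mice implanted with a transplantable tumor.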

[1] = endpoint: mean survival time, dose: 25.0 mg/kg/injection, schedule: Q04DX003 (ip), vehicle: saline with Tween-80
[2] = endpoint: mean survival time, dose: 50.0 mg/kg/injection, schedule: Q04DX003 (ip), vehicle: saline with Tween-80
[3] = endpoint: mean survival time, dose: 100.0 mg/kg/injection, schedule: Q01DX001 (ip), vehicle: saline with Tween-80
[4] = endpoint: mean survival time, dose: 100.0 mg/kg/injection, schedule: Q01DX009 (ip), vehicle: saline with Tween-80
[5] = endpoint: mean survival time, dose: 100.0 mg/kg/injection, schedule: Q04DX002 (ip), vehicle: saline with Tween-80
[6] = endpoint: mean survival time, dose: 100.0 mg/kg/injection, schedule: Q04DX003 (ip), vehicle: saline with Tween-80
[7] = endpoint: mean survival time, dose: 200.0 mg/kg/injection, schedule: Q01DX001 (ip), vehicle: saline with Tween-80
[8] = endpoint: mean survival time, dose: 200.0 mg/kg/injection, schedule: Q01DX009 (ip), vehicle: saline with Tween-80
[9] = endpoint: mean survival time, dose: 200.0 mg/kg/injection, schedule: Q04DX002 (ip), vehicle: saline with Tween-80
[10] = endpoint: mean survival time, dose: 200.0 mg/kg/injection, schedule: Q04DX003 (ip), vehicle: saline with Tween-80
[11] = endpoint: mean survival time, dose: 400.0 mg/kg/injection, schedule: Q01DX001 (ip), vehicle: saline with Tween-80
[12] = endpoint: mean survival time, dose: 400.0 mg/kg/injection, schedule: Q01DX009 (ip), vehicle: saline with Tween-80
[13] = endpoint: mean survival time, dose: 400.0 mg/kg/injection, schedule: Q04DX003 (ip), vehicle: saline with Tween-80

Measured: T/C

Nc1nc(Cl)nc2c1ncn2C1OC(CO)C(O)C1O (stereo not drawn)
inactive: endpoint: mean survival time, dose: 6.25 mg/kg/injection, schedule: Q04DX002 (ip), vehicle: saline 94 % of control | endpoint: mean survival time, dose: 12.5 mg/kg/injection, schedule: Q04DX002 (ip), vehicle: saline 109 % of control | endpoint: mean survival time, dose: 25.0 mg/kg/injection, schedule: Q04DX002 (ip), vehicle: saline 105 % of control | endpoint: mean survival time, dose: 100.0 mg/kg/injection, schedule: Q01DX009 (ip), vehicle: saline 121 % of control

O=C(NCc1ccccc1)c1ccccc1/C(=N/O)c1ccccc1
inactive: endpoint: mean survival time, dose: 100.0 mg/kg/injection, schedule: Q01DX001 (ip), vehicle: saline sonified 92 % of control | endpoint: mean survival time, dose: 200.0 mg/kg/injection, schedule: Q01DX001 (ip), vehicle: saline sonified 94 % of control | endpoint: mean survival time, dose: 400.0 mg/kg/injection, schedule: Q01DX001 (ip), vehicle: saline sonified 88 % of control

CS(=O)(=O)OC1CCCCC1c1ccccc1 (stereo not drawn)
inactive: endpoint: mean survival time, dose: 100.0 mg/kg/injection, schedule: Q01DX001 (ip), vehicle: carboxymethylcellulose (CMC) 103 % of control | endpoint: mean survival time, dose: 200.0 mg/kg/injection, schedule: Q01DX001 (ip), vehicle: carboxymethylcellulose (CMC) 103 % of control | endpoint: mean survival time, dose: 400.0 mg/kg/injection, schedule: Q01DX001 (ip), vehicle: carboxymethylcellulose (CMC) 101 % of control

O=C(COc1ccccc1)NC(=S)Nc1nccs1
inactive: [1] 87 % of control | [2] 88 % of control and 103 % of control | [3] 97 % of control | [4] 93 % of control and 102 % of control | [5] 98 % of control | [6] 88 % of control and 97 % of control | [7] 95 % of control | [8] 93 % of control and 104 % of control | [9] 102 % of control | [10] 101 % of control and 108 % of control | [11] 107 % of control | [12] 111 % of control

CC1OC(n2cnc3c(NC(=O)c4ccccc4)ncnc32)C(O)C2OC12 (stereo not drawn)
inactive: endpoint: median survival time, dose: 12.5 mg/kg/injection, schedule: Q01DX005 (ip), vehicle: alkali diluted with water 106 % of control | endpoint: median survival time, dose: 25.0 mg/kg/injection, schedule: Q01DX005 (ip), vehicle: alkali diluted with water 102 % of control | endpoint: median survival time, dose: 50.0 mg/kg/injection, schedule: Q01DX005 (ip), vehicle: alkali diluted with water 108 % of control | endpoint: median survival time, dose: 100.0 mg/kg/injection, schedule: Q01DX005 (ip), vehicle: alkali diluted with water 100 % of control | endpoint: median survival time, dose: 200.0 mg/kg/injection, schedule: Q01DX005 (ip), vehicle: alkali diluted with water 101 % of control

CN1CCN(Cc2cn(C3CC(O)C(CO)O3)c(=O)[nH]c2=O)CC1 (stereo not drawn)
inactive: endpoint: mean survival time, dose: 12.5 mg/kg/injection, schedule: Q01DX005 (ip), vehicle: water 96 % of control | endpoint: mean survival time, dose: 25.0 mg/kg/injection, schedule: Q01DX005 (ip), vehicle: water 93 % of control | endpoint: mean survival time, dose: 50.0 mg/kg/injection, schedule: Q01DX005 (ip), vehicle: water 91 % of control | endpoint: mean survival time, dose: 100.0 mg/kg/injection, schedule: Q01DX005 (ip), vehicle: water 95 % of control | endpoint: mean survival time, dose: 200.0 mg/kg/injection, schedule: Q01DX005 (ip), vehicle: water 90 % of control

COc1cc2c(cc1OC)C1CCN3C(=O)CCC3N1CC2 (stereo not drawn)
inactive: [6] 102 % of control | [10] 102 % of control | [13] 108 % of control

CCCCNCCCNCCCNC(=O)c1csc(-c2csc(CCNC(=O)C(NC(=O)C(C)C(O)C(C)NC(=O)C(NC(=O)c3nc(C(CC(N)=O)NCC(N)C(N)=O)nc(N)c3C)C(OC3OC(CO)C(O)C(O)C3OC3OC(CO)C(O)C(OC(N)=O)C3O)c3cnc[nH]3)C(C)O)n2)n1 (stereo not drawn)
inactive: endpoint: mean survival time, dose: 2.5 mg/kg/injection, schedule: Q01DX009 (ip), vehicle: saline 101 % of control | endpoint: mean survival time, dose: 5.0 mg/kg/injection, schedule: Q01DX009 (ip), vehicle: saline 101 % of control | endpoint: mean survival time, dose: 10.0 mg/kg/injection, schedule: Q01DX009 (ip), vehicle: saline 114 % of control | endpoint: mean survival time, dose: 20.0 mg/kg/injection, schedule: Q01DX009 (ip), vehicle: saline 104 % of control | endpoint: mean survival time, dose: 40.0 mg/kg/injection, schedule: Q01DX009 (ip), vehicle: saline 104 % of control

CC1CCC(n2cnc3c(Cl)ncnc32)O1 (stereo not drawn)
inactive: endpoint: median survival time, dose: 12.5 mg/kg/injection, schedule: Q01DX009 (ip), vehicle: Klucel (hydroxypropylcellulose) (HPC) 97 % of control and 101 % of control | endpoint: median survival time, dose: 25.0 mg/kg/injection, schedule: Q01DX009 (ip), vehicle: Klucel (hydroxypropylcellulose) (HPC) 95 % of control and 100 % of control and 105 % of control | endpoint: median survival time, dose: 50.0 mg/kg/injection, schedule: Q01DX009 (ip), vehicle: Klucel (hydroxypropylcellulose) (HPC) 113 % of control and 93 % of control and 108 % of control | endpoint: median survival time, dose: 100.0 mg/kg/injection, schedule: Q01DX009 (ip), vehicle: Klucel (hydroxypropylcellulose) (HPC) 102 % of control and 108 % of control and 111 % of control | endpoint: median survival time, dose: 200.0 mg/kg/injection, schedule: Q01DX009 (ip), vehicle: Klucel (hydroxypropylcellulose) (HPC) 113 % of control (2×) and 114 % of control

O=c1[nH]c(N[N+](=O)[O-])nc(-c2ccccc2)c1Br
inactive: [5] 103 % of control | [9] 100 % of control | endpoint: mean survival time, dose: 400.0 mg/kg/injection, schedule: Q04DX002 (ip), vehicle: saline with Tween-80 92 % of control

COc1cc(C2C3CN(C4CCCCC4)C(=O)C3NN2C(C)=O)ccc1OC(C)=O (stereo not drawn)
inactive: [4] 93 % of control | [8] 95 % of control | [12] 95 % of control

CN(C)CCOc1ccccn1
inactive: [4] 93 % of control | [6] 92 % of control | [8] 95 % of control | [10] 87 % of control | [12] 87 % of control | [13] 87 % of control

CCC(=O)c1ccccc1N
inactive: [6] 90 % of control | [10] 105 % of control | [13] 97 % of control

CS(=O)CN(c1c(Cl)c(Cl)c(NS(=O)(=O)c2ccccc2)c(Cl)c1Cl)S(=O)(=O)c1ccccc1 (stereo not drawn)
inactive: [3] 96 % of control | [7] 92 % of control | [11] 92 % of control

COC(=O)NC(S(=O)(=O)O)S(=O)(=O)O
inactive: endpoint: mean survival time, dose: 100.0 mg/kg/injection, schedule: Q01DX001 (ip), vehicle: saline 108 % of control | endpoint: mean survival time, dose: 200.0 mg/kg/injection, schedule: Q01DX001 (ip), vehicle: saline 101 % of control | endpoint: mean survival time, dose: 400.0 mg/kg/injection, schedule: Q01DX001 (ip), vehicle: saline 108 % of control

CN(C)CCN(C)CCN(C)CCN(C)C
inactive: endpoint: mean survival time, dose: 100.0 mg/kg/injection, schedule: Q04DX003 (ip), vehicle: saline 95 % of control | endpoint: mean survival time, dose: 200.0 mg/kg/injection, schedule: Q04DX003 (ip), vehicle: saline 97 % of control | endpoint: mean survival time, dose: 400.0 mg/kg/injection, schedule: Q04DX003 (ip), vehicle: saline 108 % of control

CCCCN=[N+]=[N-]
inactive: endpoint: mean survival time, dose: 25.0 mg/kg/injection, schedule: Q01DX009 (ip), vehicle: water 94 % of control | endpoint: mean survival time, dose: 100.0 mg/kg/injection, schedule: Q01DX009 (ip), vehicle: water 96 % of control | endpoint: mean survival time, dose: 200.0 mg/kg/injection, schedule: Q01DX009 (ip), vehicle: water 91 % of control

CSc1ncc(N=C=O)c(=O)[nH]1
inactive: [3] 94 % of control | [7] 94 % of control

CN1CCN(CCSSCCN2CCN(C)CC2)CC1
inactive: endpoint: mean survival time, dose: 50.0 mg/kg/injection, schedule: Q01DX009 (ip), vehicle: saline sonified 97 % of control | endpoint: mean survival time, dose: 100.0 mg/kg/injection, schedule: Q01DX009 (ip), vehicle: saline sonified 97 % of control | [6] 105 % of control | endpoint: mean survival time, dose: 200.0 mg/kg/injection, schedule: Q01DX009 (ip), vehicle: saline sonified 98 % of control | [10] 100 % of control

N#CCCOS(=O)(=O)c1cccc([N+](=O)[O-])c1
inactive: [6] 98 % of control | [10] 101 % of control | [13] 93 % of control

CC1CCC2CCCCC2[N-]1.CC1CCC2CCCCC2[N-]1.[Cl][Pt+2][Cl] (stereo not drawn)
inactive: [1] 96 % of control | [2] 94 % of control | [6] 94 % of control | [13] 88 % of control

c1ccc2c(c1)ncc1cc3c(cc12)[nH]c1ccccc13
inactive: endpoint: mean survival time, dose: 100.0 mg/kg/injection, schedule: Q01DX001 (ip), vehicle: other 96 % of control | endpoint: mean survival time, dose: 200.0 mg/kg/injection, schedule: Q01DX001 (ip), vehicle: other 101 % of control | endpoint: mean survival time, dose: 400.0 mg/kg/injection, schedule: Q01DX001 (ip), vehicle: other 104 % of control

CO/C(=N\C(=O)NC1CC(OC(=O)c2ccc(C)cc2)C(COC(=O)c2ccc(C)cc2)O1)NC(=O)c1ccc(C)cc1 (stereo not drawn)
inactive: [6] 90 % of control

C1CC1C(=NN=C(C1CC1)C1CC1)C1CC1
inactive: endpoint: mean survival time, dose: 25.0 mg/kg/injection, schedule: Q01DX009 (ip), vehicle: saline with Tween-80 97 % of control | endpoint: mean survival time, dose: 50.0 mg/kg/injection, schedule: Q01DX009 (ip), vehicle: saline with Tween-80 101 % of control | [6] 86 % of control
